Results from patent US10550111B2, “Pyrimidine urea compound containing isoxazolines and use thereof” (SHENYANG SINOCHEM AGROCHEMICALS R&D CO., LTD, priority 2014, dated 2020).

Legend:
Format in all cases: in vivo
[1] = test system: broad-leaf weeds and grass weeds; assay: General screening of herbicidal activity in greenhouse; conditions: 1000 g a.i./hm^2;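 further: 0 means no visible effect and 100 means all weeds dead or not emerged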
Summary of the method: (§1)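 Visual growth inhibition rating (0–100%; 100 = weeds dead or not emerged) after track-sprayer application of compounds formulated as emulsifiable concentrates. Sprays given 24 h post-sowing (pre-emergence) or at 2–3-leaf (grasses) / 2–4-leaf (broad-leaves) stage, greenhouse-grown plants.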

[2] = test system: Echinochloa crus-galli (L.) Beauv.; assay: Bioassay of herbicidal activity in greenhouse (further screening)
Summary of the method: as §1

[3] = test system: Setaria glauca (L.) Beauv.; assay: as above
Summary of the method: as §1

[4] = test system: Abutilon theophrasti Medic.; assay: as above
Summary of the method: as §1

[5] = test system: Zinnia elegans Jacq.; assay: as above
Summary of the method: as §1

[6] = test system: wheat; assay: Crop safety study in greenhouse; conditions: 7.5-37.5 g a.i./hm^2; pre-emergence and post-emergence application
Description: (§2) Seeds of soybean, cotton, maize, wheat and rice were sown in nutrition soil in paper pot (9 cm diameter), covered with soil in 1 cm and grown in the greenhouse under good growth conditions (temperature, atmospheric humidity, water supply). The compounds of the present invention as emulsifiable concentrate, were applied in pre-emergence and post-emergence treatment by track sprayer (Engineer Research Ltd., pressure 1.95 kg/cm^2, volume 500 L/hm^2, track speed 1.48 km/h). Pre-emergence treatment was conducted after seeding 24 hours and post-emergence treatment was done when the respective weeds reached predetermined leaf stage (soybean and cotton at 2- to 4-leaf stage and maize, wheat and rice at 3-leaf stage), the state of growth of the respective crops were visually observed to determine the safety in accordance with the following evaluation standard.
(§3) Safety rating scale (%): 0 means no damage to crops; 100 means to kill crops completely.

[7] = test system: rice; assay: Crop safety study in greenhouse; conditions: 7.5-37.5 g a.i./hm^2; pre-emergence and post-emergence application
Description: as §2, §3

[8] = test system: maize; assay: Crop safety study in greenhouse; conditions: 7.5-37.5 g a.i./hm^2; pre-emergence and post-emergence application
Description: as §2, §3

## CC(C)C(=O)OCC1(C)CC(c2cc(-n3c(=O)cc(C(F)(F)F)n(C)c3=O)c(F)cc2Cl)=NO1 (stereo not shown) [Compound 46]
[1]
  pre-emergence and post-emergence herbicidal activity against broad-leaf weeds and grass weeds: good
[2]; dose 7.5 g a.i./hm^2
  Growth inhibition rate, Post-emergence treatment, Echinochloa crus-galli (L.) Beauv.: 20%
  Growth inhibition rate, Pre-emergence treatment, Echinochloa crus-galli (L.) Beauv.: 10%
[2]; dose 15 g a.i./hm^2
  Growth inhibition rate, Post-emergence treatment, Echinochloa crus-galli (L.) Beauv.: 25%
  Growth inhibition rate, Pre-emergence treatment, Echinochloa crus-galli (L.) Beauv.: 15%
[2]; dose 37.5 g a.i./hm^2
  Growth inhibition rate, Post-emergence treatment, Echinochloa crus-galli (L.) Beauv.: 30%
  Growth inhibition rate, Pre-emergence treatment, Echinochloa crus-galli (L.) Beauv.: 50%
[2]; dose 150 g a.i./hm^2
  Growth inhibition rate, Post-emergence treatment, Echinochloa crus-galli (L.) Beauv.: 75%
  Growth inhibition rate, Pre-emergence treatment, Echinochloa crus-galli (L.) Beauv.: 95%
[2]; dose 600 g a.i./hm^2
  Growth inhibition rate, Post-emergence treatment, Echinochloa crus-galli (L.) Beauv.: 98%
  Growth inhibition rate, Pre-emergence treatment, Echinochloa crus-galli (L.) Beauv.: 100%
[3]; dose 7.5 g a.i./hm^2
  Growth inhibition rate, Post-emergence treatment, Setaria glauca (L.) Beauv.: 45%
  Growth inhibition rate, Pre-emergence treatment, Setaria glauca (L.) Beauv.: 75%
[3]; dose 15 g a.i./hm^2
  Growth inhibition rate, Post-emergence treatment, Setaria glauca (L.) Beauv.: 55%
  Growth inhibition rate, Pre-emergence treatment, Setaria glauca (L.) Beauv.: 60%
[3]; dose 37.5 g a.i./hm^2
  Growth inhibition rate, Post-emergence treatment, Setaria glauca (L.) Beauv.: 55%
  Growth inhibition rate, Pre-emergence treatment, Setaria glauca (L.) Beauv.: 95%
[3]; dose 150 g a.i./hm^2
  Growth inhibition rate, Post-emergence treatment, Setaria glauca (L.) Beauv.: 80%
  Growth inhibition rate, Pre-emergence treatment, Setaria glauca (L.) Beauv.: 100%
[3]; dose 600 g a.i./hm^2
  Growth inhibition rate, Post-emergence treatment, Setaria glauca (L.) Beauv.: 100%
  Growth inhibition rate, Pre-emergence treatment, Setaria glauca (L.) Beauv.: 100%
[4]; dose 7.5 g a.i./hm^2
  Growth inhibition rate, Post-emergence treatment, Abutilon theophrasti Medic.: 98%
  Growth inhibition rate, Pre-emergence treatment, Abutilon theophrasti Medic.: 50%
[4]; dose 15 g a.i./hm^2
  Growth inhibition rate, Post-emergence treatment, Abutilon theophrasti Medic.: 100%
  Growth inhibition rate, Pre-emergence treatment, Abutilon theophrasti Medic.: 100%
[4]; dose 37.5 g a.i./hm^2
  Growth inhibition rate, Post-emergence treatment, Abutilon theophrasti Medic.: 100%
  Growth inhibition rate, Pre-emergence treatment, Abutilon theophrasti Medic.: 100%
[4]; dose 150 g a.i./hm^2
  Growth inhibition rate, Post-emergence treatment, Abutilon theophrasti Medic.: 100%
  Growth inhibition rate, Pre-emergence treatment, Abutilon theophrasti Medic.: 100%
[4]; dose 600 g a.i./hm^2
  Growth inhibition rate, Post-emergence treatment, Abutilon theophrasti Medic.: 100%
  Growth inhibition rate, Pre-emergence treatment, Abutilon theophrasti Medic.: 100%
[5]; dose 7.5 g a.i./hm^2
  Growth inhibition rate, Post-emergence treatment, Zinnia elegans Jacq.: 98%
  Growth inhibition rate, Pre-emergence treatment, Zinnia elegans Jacq.: 40%
[5]; dose 15 g a.i./hm^2
  Growth inhibition rate, Post-emergence treatment, Zinnia elegans Jacq.: 98%
  Growth inhibition rate, Pre-emergence treatment, Zinnia elegans Jacq.: 45%
[5]; dose 37.5 g a.i./hm^2
  Growth inhibition rate, Post-emergence treatment, Zinnia elegans Jacq.: 100%
  Growth inhibition rate, Pre-emergence treatment, Zinnia elegans Jacq.: 95%
[5]; dose 150 g a.i./hm^2
  Growth inhibition rate, Post-emergence treatment, Zinnia elegans Jacq.: 100%
  Growth inhibition rate, Pre-emergence treatment, Zinnia elegans Jacq.: 100%
[5]; dose 600 g a.i./hm^2
  Growth inhibition rate, Post-emergence treatment, Zinnia elegans Jacq.: 100%
  Growth inhibition rate, Pre-emergence treatment, Zinnia elegans Jacq.: 100%
[6]
  Crop safety, wheat: good safety
[7]
  Crop safety, rice: good safety
[8]
  Crop safety, maize: good safety

## Cn1c(C(F)(F)F)cc(=O)n(-c2cc(C3=NOC(C)(COC(=O)COc4ccc(Cl)cc4Cl)C3)c(Cl)cc2F)c1=O (stereo not shown) [Compound 83]
[1]
  pre-emergence and post-emergence herbicidal activity against broad-leaf weeds and grass weeds: good
[2]; dose 7.5 g a.i./hm^2
  Growth inhibition rate, Post-emergence treatment, Echinochloa crus-galli (L.) Beauv.: 25%
  Growth inhibition rate, Pre-emergence treatment, Echinochloa crus-galli (L.) Beauv.: 10%
[2]; dose 15 g a.i./hm^2
  Growth inhibition rate, Post-emergence treatment, Echinochloa crus-galli (L.) Beauv.: 25%
  Growth inhibition rate, Pre-emergence treatment, Echinochloa crus-galli (L.) Beauv.: 10%
[2]; dose 37.5 g a.i./hm^2
  Growth inhibition rate, Post-emergence treatment, Echinochloa crus-galli (L.) Beauv.: 30%
  Growth inhibition rate, Pre-emergence treatment, Echinochloa crus-galli (L.) Beauv.: 25%
[2]; dose 150 g a.i./hm^2
  Growth inhibition rate, Post-emergence treatment, Echinochloa crus-galli (L.) Beauv.: 45%
  Growth inhibition rate, Pre-emergence treatment, Echinochloa crus-galli (L.) Beauv.: 90%
[2]; dose 600 g a.i./hm^2
  Growth inhibition rate, Post-emergence treatment, Echinochloa crus-galli (L.) Beauv.: 90%
  Growth inhibition rate, Pre-emergence treatment, Echinochloa crus-galli (L.) Beauv.: 100%
[3]; dose 7.5 g a.i./hm^2
  Growth inhibition rate, Post-emergence treatment, Setaria glauca (L.) Beauv.: 30%
  Growth inhibition rate, Pre-emergence treatment, Setaria glauca (L.) Beauv.: 10%
[3]; dose 15 g a.i./hm^2
  Growth inhibition rate, Post-emergence treatment, Setaria glauca (L.) Beauv.: 45%
  Growth inhibition rate, Pre-emergence treatment, Setaria glauca (L.) Beauv.: 15%
[3]; dose 37.5 g a.i./hm^2
  Growth inhibition rate, Post-emergence treatment, Setaria glauca (L.) Beauv.: 50%
  Growth inhibition rate, Pre-emergence treatment, Setaria glauca (L.) Beauv.: 35%
[3]; dose 150 g a.i./hm^2
  Growth inhibition rate, Post-emergence treatment, Setaria glauca (L.) Beauv.: 70%
  Growth inhibition rate, Pre-emergence treatment, Setaria glauca (L.) Beauv.: 80%
[3]; dose 600 g a.i./hm^2
  Growth inhibition rate, Post-emergence treatment, Setaria glauca (L.) Beauv.: 85%
  Growth inhibition rate, Pre-emergence treatment, Setaria glauca (L.) Beauv.: 100%
[4]; dose 7.5 g a.i./hm^2
  Growth inhibition rate, Post-emergence treatment, Abutilon theophrasti Medic.: 65%
  Growth inhibition rate, Pre-emergence treatment, Abutilon theophrasti Medic.: 0%
[4]; dose 15 g a.i./hm^2
  Growth inhibition rate, Post-emergence treatment, Abutilon theophrasti Medic.: 98%
  Growth inhibition rate, Pre-emergence treatment, Abutilon theophrasti Medic.: 30%
[4]; dose 37.5 g a.i./hm^2
  Growth inhibition rate, Post-emergence treatment, Abutilon theophrasti Medic.: 100%
  Growth inhibition rate, Pre-emergence treatment, Abutilon theophrasti Medic.: 50%
[4]; dose 150 g a.i./hm^2
  Growth inhibition rate, Post-emergence treatment, Abutilon theophrasti Medic.: 100%
  Growth inhibition rate, Pre-emergence treatment, Abutilon theophrasti Medic.: 100%
[4]; dose 600 g a.i./hm^2
  Growth inhibition rate, Post-emergence treatment, Abutilon theophrasti Medic.: 100%
  Growth inhibition rate, Pre-emergence treatment, Abutilon theophrasti Medic.: 100%
[5]; dose 7.5 g a.i./hm^2
  Growth inhibition rate, Post-emergence treatment, Zinnia elegans Jacq.: 65%
  Growth inhibition rate, Pre-emergence treatment, Zinnia elegans Jacq.: 0%
[5]; dose 15 g a.i./hm^2
  Growth inhibition rate, Post-emergence treatment, Zinnia elegans Jacq.: 90%
  Growth inhibition rate, Pre-emergence treatment, Zinnia elegans Jacq.: 10%
[5]; dose 37.5 g a.i./hm^2
  Growth inhibition rate, Post-emergence treatment, Zinnia elegans Jacq.: 98%
  Growth inhibition rate, Pre-emergence treatment, Zinnia elegans Jacq.: 50%
[5]; dose 150 g a.i./hm^2
  Growth inhibition rate, Post-emergence treatment, Zinnia elegans Jacq.: 100%
  Growth inhibition rate, Pre-emergence treatment, Zinnia elegans Jacq.: 100%
[5]; dose 600 g a.i./hm^2
  Growth inhibition rate, Post-emergence treatment, Zinnia elegans Jacq.: 100%
  Growth inhibition rate, Pre-emergence treatment, Zinnia elegans Jacq.: 100%
[6]
  Crop safety, wheat: good safety
[7]
  Crop safety, rice: good safety
[8]
  Crop safety, maize: good safety
